Data on 10 molecules can be found in patent US20190175744A1, “INSULIN-INCRETIN CONJUGATES” (Merck Sharp & Dohme Corp., priority 2016, published 2019).

Where two headings read alike, the source gives them in different places.

One experiment has as its target human GLP1R (Homo sapiens, UniProt P43220). As to the kind of experiment: cAMP activity assay, cells expressing human GLP1R. It is filed as cell-based.
The target of another experiment is T1, human GCGR (Homo sapiens, UniProt P47871).
T1 construct: expressed in transfected cells; grown with Blasticidin and Hygromycin
T1 sequence (P47871 26-477): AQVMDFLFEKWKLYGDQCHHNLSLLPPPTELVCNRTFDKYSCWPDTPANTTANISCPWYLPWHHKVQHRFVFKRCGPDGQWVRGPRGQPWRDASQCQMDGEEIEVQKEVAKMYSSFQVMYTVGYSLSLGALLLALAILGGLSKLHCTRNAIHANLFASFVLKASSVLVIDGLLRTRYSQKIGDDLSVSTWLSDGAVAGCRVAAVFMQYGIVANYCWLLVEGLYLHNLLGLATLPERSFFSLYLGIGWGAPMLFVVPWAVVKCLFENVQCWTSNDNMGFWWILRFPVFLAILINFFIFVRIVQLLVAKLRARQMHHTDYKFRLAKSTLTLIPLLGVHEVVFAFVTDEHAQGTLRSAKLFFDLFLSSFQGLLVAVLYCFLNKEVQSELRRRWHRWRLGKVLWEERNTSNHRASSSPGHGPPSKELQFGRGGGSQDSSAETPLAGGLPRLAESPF
As to the kind of experiment: cAMP activity assay, cells expressing human GCGR.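 On all read-outs here: cAMP production read by luminescence after one hour of peptide exposure at room temperature, EC50 from logistic curve fit, native glucagon and GLP-1 as control peptides.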 Format: cell-based. The following applies: for GCGR/GLP1R ratio: Table 5, ratio of hGCGR EC50 to hGLP1R EC50.

human GLP1R, sequence (P43220 24-463): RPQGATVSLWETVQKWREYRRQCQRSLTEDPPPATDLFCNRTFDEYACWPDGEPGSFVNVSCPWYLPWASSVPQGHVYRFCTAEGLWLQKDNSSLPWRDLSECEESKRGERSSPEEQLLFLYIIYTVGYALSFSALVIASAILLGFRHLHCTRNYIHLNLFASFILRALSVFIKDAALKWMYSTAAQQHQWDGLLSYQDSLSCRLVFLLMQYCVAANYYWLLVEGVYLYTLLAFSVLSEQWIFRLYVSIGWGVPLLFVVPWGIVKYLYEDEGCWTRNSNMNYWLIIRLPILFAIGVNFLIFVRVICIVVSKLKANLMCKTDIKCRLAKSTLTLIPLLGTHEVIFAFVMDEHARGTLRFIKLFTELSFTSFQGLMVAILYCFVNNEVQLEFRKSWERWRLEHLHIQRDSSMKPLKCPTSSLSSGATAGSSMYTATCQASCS
Method for human GLP1R: Activity of the incretin peptides or the conjugates at the Glucagon receptor (GCGR) and GLP-1 receptor (GLP1R) may be measured in a cAMP activity assay as follows.
Peptides are dissolved in 100% DMSO and serially diluted to generate 10 point titrations. The peptide solutions are then transferred into 384-well assay plates (150 nL/well). Assay ready frozen cells expressing human GLP1R or human GCGR are suspended in growth media consisting of DMEM medium (GIBCO), 10% FBS (GIBCO), 1×NEAA(GIBCO), 1×P/S (GIBCO), 10 μg/mL Blasticidin (GIBCO) and 200 μg/mL Hygromycin (GIBCO). […] The cell suspensions (15 μL) are then added to the assay plates containing the peptide solutions (30,000 cells/well for human GCGR; 10,000 cells/well for human GLP1R). The cells are incubated for one hour at room temperature in the dark.
Production of cAMP may be determined using HitHunterr cAMPXS kits (DiscoverX) following the manufacturer's protocol. The plates are incubated for overnight at room temperature in the dark. Luminescence may be measured using an EnVision Multilabel plate reader (Perkin Elmer). Native GLP-1 and Glucagon (Bachem) may be used as control peptides. EC50 values may be calculated using uses a 4 parameter logistic fit based on the Levenberg-Marquardt algorithm.

Take `CCCCCCCCCCCCCCCC(=O)N[C@@H](CCC(=O)N[C@@H](CCC(=O)NCCCC[C@H](NC(=O)[C@H](CC(=O)O)NC(=O)[C@H](CO)NC(=O)[C@@H](NC(=O)[C@H](Cc1ccccc1)NC(=O)[C@@H](NC(=O)CNC(=O)[C@H](CCC(N)=O)NC(=O)[C@@H](CO)NC(=O)[C@@H](N)Cc1c[nH]cn1)[C@@H](C)O)[C@@H](C)O)C(=O)N[C@@H](CO)C(=O)N[C@@H](CCCCN)C(=O)N[C@@H](Cc1ccc(O)cc1)C(=O)N[C@@H](CC(C)C)C(=O)N[C@@H](CC(=O)O)C(=O)N[C@@H](CCC(=O)O)C(=O)N[C@@H](CCCNC(=N)N)C(=O)N[C@@H](C)C(=O)N[C@@H](C)C(=O)N[C@@H](CCC(N)=O)C(=O)N[C@@H](CCCCN=[N+]=[N-])C(=O)N[C@@H](Cc1ccccc1)C(=O)N[C@H](C(=O)N[C@@H](CCC(N)=O)C(=O)N[C@@H](Cc1c[nH]c2ccccc12)C(=O)N[C@@H](CC(C)C)C(=O)N[C@@H](CC(C)C)C(=O)N[C@@H](CC(=O)O)C(=O)N[C@H](C(N)=O)[C@@H](C)O)C(C)C)C(=O)O)C(=O)O` [PEP1]: at human GLP1R (Table 5, incretin peptides, cAMP, read-out: hGLP1R EC50), the EC50 (commonly the concentration at which the effect is half-maximal) was found to be 0.03 nM. The GCGR/GLP1R ratio at human GCGR was 0.5.

Regarding `CCCCCCCCCCCCCCCC(=O)N[C@@H](CCC(=O)N[C@@H](CCC(=O)NCCCC[C@H](NC(=O)[C@H](CC(=O)O)NC(=O)[C@H](CO)NC(=O)[C@@H](NC(=O)[C@H](Cc1ccccc1)NC(=O)[C@@H](NC(=O)CNC(=O)[C@H](CCC(N)=O)NC(=O)C(C)(C)NC(=O)[C@@H](N)Cc1c[nH]cn1)[C@@H](C)O)[C@@H](C)O)C(=O)N[C@@H](CO)C(=O)N[C@@H](CCCCN)C(=O)N[C@@H](Cc1ccc(O)cc1)C(=O)N[C@@H](CC(C)C)C(=O)N[C@@H](CC(=O)O)C(=O)N[C@@H](CCC(=O)O)C(=O)N[C@@H](CCCNC(=N)N)C(=O)N[C@@H](C)C(=O)N[C@@H](C)C(=O)N[C@@H](CCC(N)=O)C(=O)N[C@@H](CC(=O)O)C(=O)N[C@@H](Cc1ccccc1)C(=O)N[C@H](C(=O)N[C@@H](CCCCN=[N+]=[N-])C(=O)N[C@@H](Cc1c[nH]c2ccccc12)C(=O)N[C@@H](CC(C)C)C(=O)N[C@@H](CC(C)C)C(=O)N[C@@H](CC(=O)O)C(=O)NCC(=O)N[C@@H](CCCNC(=N)N)C(=O)NCC(N)=O)C(C)C)C(=O)O)C(=O)O` [PEP2], the EC50 stood at 0.03 nM on human GLP1R and 0.11 nM on human GCGR. At human GCGR, the GCGR/GLP1R ratio worked out at 3.7.

In turn, `CCCCCCCCCCCCCCCC(=O)N[C@@H](CCC(=O)N[C@@H](CCC(=O)NCCCC[C@H](NC(=O)[C@H](CC(=O)O)NC(=O)[C@H](CO)NC(=O)[C@@H](NC(=O)[C@H](Cc1ccccc1)NC(=O)[C@@H](NC(=O)CNC(=O)[C@H](CCC(N)=O)NC(=O)C(C)(C)NC(=O)[C@@H](N)Cc1c[nH]cn1)[C@@H](C)O)[C@@H](C)O)C(=O)N[C@@H](CO)C(=O)N[C@@H](CCCCN)C(=O)N[C@@H](Cc1ccc(O)cc1)C(=O)N[C@@H](CC(C)C)C(=O)N[C@@H](CC(=O)O)C(=O)NC(C)(C)C(=O)N[C@@H](CCCNC(=N)N)C(=O)N[C@@H](C)C(=O)N[C@@H](C)C(=O)N[C@@H](CCC(N)=O)C(=O)N[C@@H](CC(=O)O)C(=O)N[C@@H](Cc1ccccc1)C(=O)N[C@H](C(=O)N[C@@H](CCCCN=[N+]=[N-])C(=O)N[C@@H](Cc1c[nH]c2ccccc12)C(=O)N[C@@H](CC(C)C)C(=O)N[C@@H](CCS(C)(=O)=O)C(=O)N[C@@H](CCCCN)C(=O)NCC(=O)N[C@@H](CCCNC(=N)N)C(=O)NCC(N)=O)C(C)C)C(=O)O)C(=O)O` [PEP3] came in with an EC50 on human GLP1R of 0.02 nM. In addition, on human GCGR, the EC50 was 0.07 nM and the GCGR/GLP1R ratio is given as 4.6.

In the case of `CCCCCCCCCCCCCCCC(=O)N[C@@H](CCC(=O)N[C@@H](CCC(=O)NCCCC[C@H](NC(=O)[C@H](CC(=O)O)NC(=O)[C@H](CO)NC(=O)[C@@H](NC(=O)[C@H](Cc1ccccc1)NC(=O)[C@@H](NC(=O)CNC(=O)[C@H](CCC(N)=O)NC(=O)C(C)(C)NC(=O)[C@@H](N)Cc1c[nH]cn1)[C@@H](C)O)[C@@H](C)O)C(=O)N[C@@H](CO)C(=O)N[C@@H](CCCCN)C(=O)N[C@@H](Cc1ccc(O)cc1)C(=O)N[C@@H](CC(C)C)C(=O)N[C@@H](CC(=O)O)C(=O)NC(C)(C)C(=O)N[C@@H](CCCNC(=N)N)C(=O)N[C@@H](CCCNC(=N)N)C(=O)N[C@@H](C)C(=O)N[C@@H](CCC(N)=O)C(=O)N[C@@H](CC(=O)O)C(=O)N[C@@H](Cc1ccccc1)C(=O)N[C@H](C(=O)N[C@@H](CCC(N)=O)C(=O)N[C@@H](Cc1c[nH]c2ccccc12)C(=O)N[C@@H](CC(C)C)C(=O)N[C@@H](CC(C)C)C(=O)N[C@@H](CC(=O)O)C(=O)N[C@H](C(=O)N[C@@H](CCCCN=[N+]=[N-])C(=O)N[C@@H](CCC(N)=O)C(=O)O)[C@@H](C)O)C(C)C)C(=O)O)C(=O)O` [PEP6], the EC50 turned out to be 0.17 nM on human GLP1R and 0.07 nM at human GCGR.

`CCCCCCCCCCCCCCCC(=O)N[C@@H](CCC(=O)N[C@@H](CCC(=O)NCCCC[C@H](NC(=O)[C@H](CC(=O)O)NC(=O)[C@H](CO)NC(=O)[C@@H](NC(=O)[C@H](Cc1ccccc1)NC(=O)[C@@H](NC(=O)CNC(=O)[C@H](CCC(N)=O)NC(=O)C(C)(C)NC(=O)[C@@H](N)Cc1c[nH]cn1)[C@@H](C)O)[C@@H](C)O)C(=O)N[C@@H](CO)C(=O)N[C@@H](CCCCN)C(=O)N[C@@H](Cc1ccc(O)cc1)C(=O)N[C@@H](CC(C)C)C(=O)N[C@@H](CC(=O)O)C(=O)NC(C)(C)C(=O)N[C@@H](CCCNC(=N)N)C(=O)N[C@@H](C)C(=O)N[C@@H](C)C(=O)N[C@@H](CCC(N)=O)C(=O)N[C@@H](CC(=O)O)C(=O)N[C@@H](Cc1ccccc1)C(=O)N[C@H](C(=O)N[C@@H](CCCCN=[N+]=[N-])C(=O)N[C@@H](Cc1c[nH]c2ccccc12)C(=O)N[C@@H](CC(C)C)C(=O)N[C@@H](CCS(C)(=O)=O)C(=O)N[C@@H](CC(=O)O)C(=O)N[C@H](C(N)=O)[C@@H](C)O)C(C)C)C(=O)O)C(=O)O` [PEP10]: the EC50 on human GLP1R worked out at 0.03 nM. Besides, on human GCGR, the EC50 was found to be 0.02 nM and the GCGR/GLP1R ratio stood at 0.7.

For the molecule `CC(C)C[C@H](NC(=O)[C@H](Cc1ccc(O)cc1)NC(=O)[C@H](CCCCN)NC(=O)[C@H](CO)NC(=O)[C@H](CCCCNC(=O)COCCOCCNC(=O)COCCOCCNC(=O)CC[C@H](NC(=O)CCCCCCCCCCCCCCCCC(=O)O)C(=O)O)NC(=O)[C@H](CC(=O)O)NC(=O)[C@H](CO)NC(=O)[C@@H](NC(=O)[C@H](Cc1ccccc1)NC(=O)[C@@H](NC(=O)CNC(=O)[C@H](CCC(N)=O)NC(=O)[C@@H](CO)NC(=O)[C@@H](N)Cc1c[nH]cn1)[C@@H](C)O)[C@@H](C)O)C(=O)N[C@@H](CC(=O)O)C(=O)N[C@@H](CCC(=O)O)C(=O)N[C@@H](CCCNC(=N)N)C(=O)N[C@@H](C)C(=O)N[C@@H](C)C(=O)N[C@@H](CCC(N)=O)C(=O)N[C@@H](CC(=O)O)C(=O)N[C@@H](Cc1ccccc1)C(=O)N[C@H](C(=O)N[C@@H](CCCCN=[N+]=[N-])C(=O)N[C@@H](Cc1c[nH]c2ccccc12)C(=O)N[C@@H](CC(C)C)C(=O)N[C@@H](CC(C)C)C(=O)N[C@@H](CC(=O)O)C(=O)N[C@H](C(N)=O)[C@@H](C)O)C(C)C` [PEP29], the GCGR/GLP1R ratio at human GCGR turned out to be 1.0.

In the case of `CC(C)C[C@H](NC(=O)[C@H](Cc1ccc(O)cc1)NC(=O)[C@H](CCCCN)NC(=O)[C@H](CO)NC(=O)[C@H](Cc1ccc(O)cc1)NC(=O)[C@H](CC(=O)O)NC(=O)[C@H](CO)NC(=O)[C@@H](NC(=O)[C@H](Cc1ccccc1)NC(=O)[C@@H](NC(=O)CNC(=O)[C@H](CCC(N)=O)NC(=O)C(C)(C)NC(=O)[C@@H](N)Cc1c[nH]cn1)[C@@H](C)O)[C@@H](C)O)C(=O)N[C@@H](CC(=O)O)C(=O)N[C@@H](C)C(=O)N[C@@H](CCCNC(=N)N)C(=O)N[C@@H](C)C(=O)N[C@@H](C)C(=O)N[C@@H](CCCCNC(=O)COCCOCCNC(=O)COCCOCCNC(=O)CC[C@H](NC(=O)CCCCCCCCCCCCCCCCCCC(=O)O)C(=O)O)C(=O)N[C@@H](CC(=O)O)C(=O)N[C@@H](Cc1ccccc1)C(=O)N[C@H](C(=O)N[C@@H](CCCCN=[N+]=[N-])C(=O)N[C@@H](Cc1c[nH]c2ccccc12)C(=O)N[C@@H](CC(C)C)C(=O)N[C@@H](CCS(C)(=O)=O)C(=O)N[C@@H](CC(=O)O)C(=O)N[C@H](C(N)=O)[C@@H](C)O)C(C)C` [PEP31], on human GCGR, the GCGR/GLP1R ratio stood at 3.1.

Regarding `CC(C)C[C@H](NC(=O)[C@H](Cc1ccc(O)cc1)NC(=O)[C@H](CCCCN)NC(=O)[C@H](CO)NC(=O)[C@H](CCCCN)NC(=O)[C@H](CC(=O)O)NC(=O)[C@H](CO)NC(=O)[C@@H](NC(=O)[C@H](Cc1ccccc1)NC(=O)[C@@H](NC(=O)CNC(=O)[C@H](CCC(N)=O)NC(=O)[C@@H](CO)NC(=O)[C@@H](N)Cc1c[nH]cn1)[C@@H](C)O)[C@@H](C)O)C(=O)N[C@@H](CC(=O)O)C(=O)N[C@@H](CCC(=O)O)C(=O)N[C@@H](CCCNC(=N)N)C(=O)N[C@@H](C)C(=O)N[C@@H](C)C(=O)N[C@@H](CCC(N)=O)C(=O)N[C@@H](CC(=O)O)C(=O)N[C@@H](Cc1ccccc1)C(=O)N[C@H](C(=O)N[C@@H](CCC(N)=O)C(=O)N[C@@H](Cc1c[nH]c2ccccc12)C(=O)N[C@@H](CC(C)C)C(=O)N[C@@H](CC(C)C)C(=O)N[C@@H](CC(=O)O)C(=O)N[C@H](C(=O)N[C@@H](CCCCN=[N+]=[N-])C(N)=O)[C@@H](C)O)C(C)C` [PEP73], the GCGR/GLP1R ratio on human GCGR is recorded as 0.6.

On to `CCCCCCCCCCCCCCCC(=O)N[C@@H](CCC(=O)N[C@@H](CCC(=O)NCCCC[C@H](NC(=O)[C@H](CC(=O)O)NC(=O)[C@H](CO)NC(=O)[C@@H](NC(=O)[C@H](Cc1ccccc1)NC(=O)[C@@H](NC(=O)CNC(=O)[C@H](CCC(N)=O)NC(=O)[C@@H](CO)NC(=O)[C@@H](N)Cc1c[nH]cn1)[C@@H](C)O)[C@@H](C)O)C(=O)N[C@@H](CO)C(=O)N[C@@H](CCCCN)C(=O)N[C@@H](Cc1ccc(O)cc1)C(=O)N[C@@H](CC(C)C)C(=O)N[C@@H](CC(=O)O)C(=O)N[C@@H](CCC(=O)O)C(=O)N[C@@H](CCCNC(=N)N)C(=O)N[C@@H](C)C(=O)N[C@@H](C)C(=O)N[C@@H](CCC(N)=O)C(=O)N[C@@H](CC(=O)O)C(=O)N[C@@H](Cc1ccccc1)C(=O)N[C@H](C(=O)N[C@@H](CCC(N)=O)C(=O)N[C@@H](Cc1c[nH]c2ccccc12)C(=O)N[C@@H](CC(C)C)C(=O)N[C@@H](CC(C)C)C(=O)N[C@@H](CC(=O)O)C(=O)N[C@H](C(N)=O)[C@@H](C)O)C(C)C)C(=O)O)C(=O)O` [PEP76, reference compound], for which, on human GCGR (Table 7, control molecules), the “Ratio GCGR/GLP1R” value stood at 1.3.

For the molecule “HsQGTGTSD-K(γEγEC16)SKYLDURAAQDFV-Nle(ϵN3)-WLLDT-NH2 [PEP7]”, at human GCGR, the GCGR/GLP1R ratio is given as 0.2.
